In patent US9085555B2, “Complement pathway modulators and uses thereof” (priority 2011, dated 2015):
pIC50: −log10 of the molar value. Where two headings read alike, the source gives them in different places.

Molecular target: Factor D (Homo sapiens (Human), UniProt P00746)
Test: biochemical
Type: biochemical

Chain of Factor D (P00746 26-253): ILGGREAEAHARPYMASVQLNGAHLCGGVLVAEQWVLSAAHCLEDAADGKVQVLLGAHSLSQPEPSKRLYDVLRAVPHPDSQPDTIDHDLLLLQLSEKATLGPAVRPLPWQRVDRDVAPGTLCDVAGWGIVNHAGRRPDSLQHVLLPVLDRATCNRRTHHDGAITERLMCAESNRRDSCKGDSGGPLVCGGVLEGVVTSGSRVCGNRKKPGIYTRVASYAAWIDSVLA

Row | Compound | pIC50 (read-out: IC50) | pIC50
1 | COc1ccc2c(c1)c(NC(=O)N1C[C@H](F)C[C@H]1C(=O)NCc1cccc(Cl)c1F)cn2C(N)=O [Example 292, (2S,4R)-4-Fluoro-pyrrolidine-1,2-dicarboxylic acid 1-[(1-carbamoyl-5-methoxy-1H-indol-3-yl)-amide] 2-(3-chloro-2-fluoro-benzylamide)] | 8.52 | 
2 | CC(=O)c1cn(CC(=O)N2C[C@H](F)C[C@H]2C(=O)NCc2cccc(Cl)c2F)c2ccc(OC(F)(F)F)cc12 [Example 539, (2S,4R)-1-[2-(3-Acetyl-5-trifluoromethoxy-indol-1-yl)-acetyl]-4-fluoro-pyrrolidine-2-carboxylic acid 3-chloro-2-fluoro-benzylamide] | 7.51 | 
3 | NC(=O)c1nn(CC(=O)N2[C@@H]3C[C@@H]3C[C@H]2C(=O)Nc2cccc(-c3ccccc3F)c2F)c2cnccc12 [Example 684, 1-{2-[(1R,3S,5R)-3-(2,2′-Difluoro-biphenyl-3-ylcarbamoyl)-2-aza-bicyclo[3.1.0]hex-2-yl]-2-oxo-ethyl}-1H-pyrazolo[3,4-c] pyridine-3-carboxylic acid amide] | 7.57 | 
4 | NC(=O)n1cc(NC(=O)N2CCS[C@H]2C(=O)NCc2cccc(Cl)c2)c2ccccc21 [Example 174, (S)-Thiazolidine-2,3-dicarboxylic acid 3-[(1-carbamoyl-1H-indol-3-yl)-amide] 2-(3-chloro-benzylamide)] | 7.46 | 
5 | NC(=O)c1nn(CC(=O)N2[C@@H]3C[C@@H]3C[C@H]2C(=O)Nc2cccc(-c3ncccc3F)c2F)c2ccccc12 [Example 686, 1-(2-{(1R,3S,5R)-3-[2-Fluoro-3-(3-fluoro-pyridin-2-yl)-phenylcarbamoyl]-2-aza-bicyclo[3.1.0]hex-2-yl}-2-oxo-ethyl)-1H-indazole-3-carboxylic acid amide] | 7.52 | 
6 | COc1ccc(Cl)cc1CNC(=O)[C@@H]1C[C@H](N)CN1C(=O)Nc1cn(C(N)=O)c2ccccc12 [Example 53, (2S,4S)-4-Amino-pyrrolidine-1,2-dicarboxylic acid 1-[(1-carbamoyl-1H-indol-3-yl)-amide] 2-(5-chloro-2-methoxy-benzylamide)] | 5.76 | 
7 | NC(=O)n1cc(NC(=O)N2C[C@@H](N)C[C@H]2C(=O)NCc2ccccc2)c2ccccc21 [Example 28, (2S,4S)-4-Amino-pyrrolidine-1,2-dicarboxylic acid 2-benzylamide 1-[(1-carbamoyl-1H-indol-3-yl)-amide]] | 5.60 | 
8 | Cc1ncc(NC(=O)[C@@H]2C[C@@H](F)CN2C(=O)Nc2cn(C(N)=O)c3ccccc23)cc1Br [Example 165, (2S,4R)-4-Fluoro-pyrrolidine-1,2-dicarboxylic acid 1-[(1-carbamoyl-1H-indol-3-yl)-amide] 2-[(5-bromo-4-methyl-pyridin-3-yl)-amide]] | 6.85 | 
9 | COC(=O)Cc1ccc2c(C(C)=O)cn(CC(=O)N3[C@@H]4C[C@@H]4C[C@H]3C(=O)NCc3cccc(Cl)c3F)c2c1 [Example 545, (3-Acetyl-1-{2-[(1R,3S,5R)-3-(3-chloro-2-fluoro-benzylcarbamoyl)-2-aza-bicyclo[3.1.0]hex-2-yl]-2-oxo-ethyl}-1H-indol-6-yl)-acetic acid methyl ester] | 6.95 | 
10 | CCc1cc2c(C(N)=O)nn(CC(=O)N3[C@@H]4C[C@@H]4C[C@H]3C(=O)Nc3cccc(Br)c3F)c2cn1 [Example 671, 1-{2-[(1R,3S,5R)-3-(3-Bromo-2-fluoro-phenylcarbamoyl)-2-aza-bicyclo[3.1.0]hex-2-yl]-2-oxo-ethyl}-5-ethyl-1H-pyrazolo[3,4-c]pyridine-3-carboxylic acid amide] | 7.11 | 
11 | NC(=O)n1cc(NC(=O)N2[C@@H]3C[C@@H]3C[C@H]2C(=O)Nc2ncccc2F)c2ccccc21 [Example 172, (1R,3S,5R)-2-Aza-bicyclo[3.1.0]hexane-2,3-dicarboxylic acid 2-[(1-carbamoyl-1H-indol-3-yl)-amide] 3-[(3-fluoro-pyridin-2-yl)-amide]] | 5.98 | 
12 | CC(=O)c1cn(CC(=O)N2[C@H](C(=O)NCc3cccc(Cl)c3F)C[C@@]3(CO)C[C@@H]23)c2ccccc12 [Example 611, (1R,3S,5S)-2-[2-(3-Acetyl-indol-1-yl)-acetyl]-5-hydroxymethyl-2-aza-bicyclo[3.1.0]hexane-3-carboxylic acid 3-chloro-2-fluoro-benzylamide] | 6.85 | 
13 | 2S,3R)-3-(2-Methoxy-ethylamino)-pyrrolidine-1,2-dicarboxylic acid 1-[(1-carbamoyl-1H-indol-3-yl)-amide]2-(3-chloro-2-fluoro-benzylamide [Example 423] | 6.11 | 
14 | NC(=O)c1cn(CC(=O)N2C[C@H](F)C[C@H]2C(=O)NCc2cccc(Cl)c2F)c2cc(Cl)ccc12 [Example 491, 6-Chloro-1-{2-[(2S,4R)-2-(3-chloro-2-fluoro-benzyl-carbamoyl)-4-fluoro-pyrrolidin-1-yl]-2-oxo-ethyl}-1H-indole-3-carboxylic acid amide] | 7.55 | 
15 | COC[C@@H](NC(=O)[C@@H]1C[C@H]2C[C@H]2N1C(=O)Cn1cc(C(C)=O)c2ccncc21)c1cccc(Cl)c1F [Example 535, (1R,3S,5R)-2-[2-(3-Acetyl-pyrrolo[2,3-c]pyridin-1-yl)-acetyl]-2-aza-bicyclo[3.1.0] hexane-3-carboxylic acid [(S)-1-(3-chloro-2-fluoro-phenyl)-2-methoxy-ethyl]-amide] | 7.21 | 
16 | CC(=O)c1cn(CC(=O)N2[C@@H]3C[C@@H]3C[C@H]2C(=O)NCc2cccc(Cl)c2F)c2ccc(C(=O)O)cc12 [Example 603, 3-Acetyl-1-{2-[(1R,3S,5R)-3-(3-chloro-2-fluoro-benzylcarbamoyl)-2-aza-bicyclo[3.1.0]hex-2-yl]-2-oxo-ethyl}-1H-indole-5-carboxylic acid] | 5.79 | 
17 | CC(=O)c1cn(CC(=O)N2C[C@@H](N)[C@H](F)[C@H]2C(=O)NCc2cccc(Cl)c2F)c2ccccc12 [Example 576, (2R,3S,4R)-1-[2-(3-Acetyl-indol-1-yl)-acetyl]-4-amino-3-fluoro-pyrrolidine-2-carboxylic acid 3-chloro-2-fluoro-benzylamide] | 6.40 | 
18 | COC(=O)[C@H]1C[C@@H](C(=O)NCc2c(F)ccc(Cl)c2F)N(C(=O)Nc2cn(C(N)=O)c3ccccc23)C1 [Example 353, (3S,5S)-1-(1-carbamoyl-1H-indol-3-ylcarbamoyl)-5-(3-chloro-2,6-difluoro-benzylcarbamoyl)-pyrrolidine-3-carboxylic acid methyl ester] | 6.60 | 
19 | NC(=O)n1cc(NC(=O)N2C[C@@H](C(F)F)C[C@H]2C(=O)NCc2cccc(Cl)c2F)c2ccccc21 [Example 359, 2S,4S)-4-Difluoromethyl-pyrrolidine-1,2-dicarboxylic acid 1-[(1-carbamoyl-1H-indol-3-yl)-amide]2-(3-chloro-2-fluoro-benzylamide] | 6.60 | 
20 | NC(=O)n1cc(NC(=O)N2CC3CC3[C@H]2C(=O)NCc2cccc(Cl)c2F)c2ccccc21 (stereo partly drawn) [Example 135, (1S,2S,5R)-3-Aza-bicyclo[3.1.0]hexane-2,3-dicarboxylic acid 3-[(1-carbamoyl-1H-indol-3-yl)-amide] 2-(3-chloro-2-fluoro-benzylamide)] | 7.23 | 
21 | NC(=O)n1cc(NC(=O)N2C[C@H](F)C[C@H]2C(=O)Nc2cncc(Br)c2)c2ccccc21 [Example 194, (2S,4R)-4-Fluoro-pyrrolidine-1,2-dicarboxylic acid 1-[(1-carbamoyl-1H-indol-3-yl)-amide] 2-[(5-bromo-pyridin-3-yl)-amide]] | 7.03 | 
22 | NC(=O)c1cc(NC(=O)N2CCC[C@H]2C(=O)Nc2cccc(OC(F)(F)F)c2)n2ccccc12 [Example 123, (S)-Pyrrolidine-1,2-dicarboxylic acid 1-[(1-carbamoyl-indolizin-3-yl)-amide]2-[(3-trifluoromethoxy-phenyl)-amide]] | 5.53 | 
23 | NC(=O)c1nn(CC(=O)N2[C@@H]3C[C@@H]3C[C@H]2C(=O)Nc2cccc(OC(F)(F)F)c2F)c2ccncc12 [Example 709, 1-(2-((1R,3S,5R)-3-(2-fluoro-3-(trifluoromethoxy)phenylcarbamoyl)-2-azabicyclo[3.1.0]hexan-2-yl)-2-oxoethyl)-1H-pyrazolo[4,3-c] pyridine-3-carboxamide] | 6.84 | 
24 | NC(=O)n1cc(CC(=O)N2C[C@@H](N)C[C@H]2C(=O)NCc2cccc(Cl)c2F)c2ccccc21 [Example 468, 3-{2-[(2S,4S)-4-Amino-2-(3-chloro-2-fluoro-benzylcarbamoyl)-pyrrolidin-1-yl]-2-oxo-ethyl}-indole-1-carboxylic acid amide] |  | 6.46
25 | NC(=O)c1cn(CC(=O)N2CCS[C@H]2C(=O)NCc2cccc(Cl)c2F)c2ccccc12 [Example 567, 1-{2-[(S)-2-(3-Chloro-2-fluoro-benzylcarbamoyl)-thiazolidin-3-yl]-2-oxo-ethyl}-1H-indole-3-carboxylic acid amide] | 6.53 | 
26 | NC(=O)c1nn(CC(=O)N2[C@@H]3C[C@@H]3C[C@H]2C(=O)Nc2cccc(OC(F)(F)F)c2F)c2ccccc12 [Example 707, 1-{2-[(1R,3S,5R)-3-(2-Fluoro-3-trifluoromethoxy-phenylcarbamoyl)-2-aza-bicyclo[3.1.0]hex-2-yl]-2-oxo-ethyl}-1H-indazole-3-carboxylic acid amide] | 7.06 | 
27 | CC(=O)c1cn(CC(=O)N2[C@@H]3C[C@@H]3C[C@H]2C(=O)NCc2cccc(Cl)c2F)c2c(C(=O)O)cccc12 [Example 601, 3-Acetyl-1-{2-[(1R,3S,5R)-3-(3-chloro-2-fluoro-benzylcarbamoyl)-2-aza-bicyclo[3.1.0]hex-2-yl]-2-oxo-ethyl}-1H-indole-7-carboxylic acid] | 6.96 | 
28 | CN(C)CCOc1ccc2c(c1)c(CC(=O)N1[C@@H]3C[C@@H]3C[C@H]1C(=O)NCc1cccc(Cl)c1F)cn2C(N)=O [Example 472, 3-{2-[(1R,3S,5R)-3-(3-Chloro-2-fluoro-benzylcarbamoyl)-2-aza-bicyclo[3.1.0]hex-2-yl]-2-oxo-ethyl}-5-(2-dimethylamino-ethoxy)-indole-1-carboxylic acid amide] | 6.59 | 
29 | CC(=O)c1nn(CC(=O)N2[C@@H]3C[C@@H]3C[C@H]2C(=O)Nc2cccc(OC(F)(F)F)c2F)c2ncccc12 [Example 711, (1R,3S,5R)-2-[2-(3-Acetyl-pyrazolo[3,4-b]pyridin-1-yl)-acetyl]-2-aza-bicyclo[3.1.0]hexane-3-carboxylic acid (2-fluoro-3-trifluoromethoxy-phenyl)-amide] | 7.15 | 
